Assay results reported in paper PMC12040169 (PLOS Biology, 2025).

Assay: in vitro
Details: human, hela cells, % viability

Structure (SMILES)	viability at 28.5 h, 10 µM [%]	viability at 28.5 h, 10 µM (bulk resorufin, single well) [%]
COc1ccc(CCCC(=O)Nc2cc3cccnc3c(Br)n2)cc1 [CBK119486]	99.6	–
O=C(NC1CC2CCC(C1)N2Cc1ccccc1)c1ccc(Cl)cc1 (stereo not drawn) [CBK120192]	88.4	–
CC1CCCCN1Cc1ccc(-c2nnn(CC(=O)NCc3ccco3)n2)cc1 (stereo not drawn) [CBK122002]	96	–
CCN(CC)CCC(=O)N1CC2(CCN(C(=O)OCc3ccccc3)CC2)c2ccccc21 [CBK122479]	106	–
Nc1ncc(-c2cc(C(F)(F)F)cc(C(F)(F)F)c2)nc1-c1ccc(O)cc1 [CBK122503]	98.3	–
Nc1ncc(-c2ccc3c(c2)OCO3)nc1-c1ccc(O)cc1 [CBK122505]	94.7	–
Nc1ncc(-c2cccc([N+](=O)[O-])c2)nc1-c1ccc(O)cc1 [CBK122507]	101	–
CC(=O)c1cccc(-c2cnc(N)c(-c3ccc(O)cc3)n2)c1 [CBK122508]	98.1	–
Nc1ncnc2[nH]nc(Nc3ccc(F)cc3)c12 [CBK122523]	79	–
O=C(O)CCSc1ccnc2ccccc12 [CBK122524C]	93.2	–
CCC1(CC)OC(NCc2ccccc2)=NC1=O [CBK122636]	86.2	–
CCN(CC)CCNC(=O)c1cccc(Nc2cncc(-c3ccc(O)cc3)n2)c1 [CBK122671]	96.9	–
CCCCOc1ccc(OC(=O)C2CCN(CCCC)CC2)cc1 [CBK122680]	112	–
CCCCN1CCC(C(=O)Oc2ccc(OC)c3ccccc23)CC1 [CBK122682]	97.2	–
Cc1cccc(C)c1NC(=O)CN(Cc1ccccc1)Cc1cc2ccc(C)c(C)c2[nH]c1=O [CBK122696T]	94.4	–
CCNC(=O)N1CC2(CCN(CCOc3ccccc3)CC2)c2ccccc21 [CBK122701]	93.9	–
CC(C)C(=O)N1CC2(CCN(Cc3ccc(C(C)C)cc3)CC2)c2ccccc21 [CBK122702]	98.8	–
CC(C)c1ccc(CN2CCC3(CC2)CN(CCO)c2ccccc23)cc1 [CBK122708]	93.4	–
COc1ccc2[nH]cc(CCNC(=O)c3ccc4nc[nH]c4c3)c2c1 [CBK122714]	94.5	–
COc1ccc2[nH]cc(CCNC(=O)c3ccc4[nH]c(=O)[nH]c4c3)c2c1 [CBK122721]	93.4	–
COc1ccc2[nH]cc(CCNC(=O)c3cccnc3)c2c1 [CBK122722]	101	–
COc1ccccc1OCC(=O)Nc1cc(C)nc2ccccc12 [CBK122728]	97.3	–
CSCCC(=O)Nc1cc(C)nc2ccccc12 [CBK122729]	108	–

Structure (SMILES)	viability at 28.5 h, 10 µM [%]	viability at 28.5 h, 10 µM (bulk resorufin, single well) [%]
Cc1cc(NC(=O)C2CCN(C)CC2)c2ccccc2n1 [CBK122730]	91.1	–
Cc1cc(NC(=O)c2c(F)cccc2F)c2ccccc2n1 [CBK122737]	92.7	–
Cc1cc(NC(=O)c2ccc3c(c2)OCCO3)c2ccccc2n1 [CBK122739]	103	–
COc1cc2c(cc1OC)CN(C(=O)C1CCN(C)CC1)CC2 [CBK122744]	93.2	–
COc1cc2c(cc1OC)CN(C(=O)Cn1cc(C)c(=O)[nH]c1=O)CC2 [CBK122745]	92.4	–
COc1cc2c(cc1OC)CN(C(=O)c1cncnc1)CC2 [CBK122748]	105	–
COc1cc2c(cc1OC)CN(C(=O)Cc1ccccc1)CC2 [CBK122751]	90.7	–
COc1ccc(Cn2c(=O)[nH]n(-c3ccccc3)c2=O)cc1F [CBK122772]	86.5	–
C[C@H](NC1=NC(=O)C2(CCN(Cc3ccccc3)CC2)O1)c1ccccc1 [CBK122798T]	88.6	–
CCCOc1ccc(O)cc1 [CBK122802]	97.8	–
COC(=O)CCc1ccc(-c2cnc(N)c(-c3ccc(O)cc3)n2)cc1 [CBK122809]	88.9	–
O=S(=O)(c1ccc(-c2cncc(-c3ccc(O)cc3)n2)cc1)N1CCOCC1 [CBK123786]	84.6	–
OCc1ccc(-c2cncc(-c3ccc(O)cc3)n2)cc1 [CBK123792]	91.4	–
CC(=O)Nc1cccc(-c2cncc(-c3ccc(O)cc3)n2)c1 [CBK123795]	77.8	–
O=C(c1cccc(-c2cncc(-c3ccc(O)cc3)n2)c1)N1CCOCC1 [CBK123796]	100	–
CC(C)OC(=O)c1cc2c(ccn2-c2ccc(F)cc2)n1CCC#N [CBK123921]	95	–
CCC1(CC)OC(N[C@@H](C)c2ccc3ccccc3c2)=NC1=O [CBK123982]	90.2	–
CCC1(CC)OC(NC[C@@H](C)c2ccccc2)=NC1=O [CBK123983]	116	–
Nc1ncc(-c2ccc(C(=O)N3CCOCC3)cc2)nc1-c1cccnc1 [CBK126356]	106	–
Nc1ncc(-c2ccc(C(=O)N3CCOCC3)cc2)nc1-c1ccc(C[C@H](N)C(=O)O)cc1 [CBK126364]	97	–
Nc1ncc(-c2ccc(C(=O)N3CCOCC3)cc2)nc1-c1ccc(CCC(=O)O)cc1 [CBK126368]	97.3	–
CC(C)(O)C1(C)OC(NC2C3CC4CC(C3)CC2C4)=NC1=O (stereo not drawn) [CBK126370]	91.2	–
N#Cc1cccc(CN2CCC(Cc3ccccc3)CC2)c1 [CBK126380]	87.1	–

Structure (SMILES)	viability at 28.5 h, 10 µM [%]	viability at 28.5 h, 10 µM (bulk resorufin, single well) [%]
c1ccc(CC2CCN(CCc3c[nH]c4ccccc34)CC2)cc1 [CBK126385]	94.9	–
O=S(=O)(CCN1CCC(Cc2ccccc2)CC1)c1ccccc1 [CBK126386]	94.9	–
O=C(CN1CCC(Cc2ccccc2)CC1)Nc1ccc(F)c(Cl)c1 [CBK126387]	92.4	–
c1ccc(CC2CCN(CCC(c3ccccc3)c3ccccc3)CC2)cc1 [CBK126389]	102	–
COc1cc2c(cc1OC)CN(CC(N)=O)CC2 [CBK126391]	86.8	–
Clc1ccc(CN2CCc3ccccc3C2)cc1Cl [CBK126395]	103	–
c1ccc2c(c1)CCN(Cc1nc3ccccc3[nH]1)C2 [CBK126396]	92.2	–
c1ccc2c(c1)CCN(Cc1ccc3ccccc3c1)C2 [CBK126397]	122	–
c1ccc2c(c1)CCN(Cc1ncc[nH]1)C2 [CBK126402]	94.7	–
COc1ccc(OCCN2CCc3ccccc3C2)cc1 [CBK126403]	94.8	–
c1ccc(C(CCN2CCc3ccccc3C2)c2ccccc2)cc1 [CBK126404]	99.1	–
COc1ccc(Cl)cc1N1CCN(Cc2c(F)cccc2F)CC1 [CBK126410]	–	90.9
COc1ccc(Cl)cc1N1CCN(CC(=O)Nc2ccc(F)c(Cl)c2)CC1 [CBK126417]	101	–
COc1ccc(Cl)cc1N1CCN(Cc2ncc[nH]2)CC1 [CBK126418]	98.1	–
Clc1ccc(CN2CCN(CCc3ccccc3)CC2)cc1Cl [CBK126420]	96.3	–
c1ccc(CCN2CCN(Cc3cccnc3)CC2)cc1 [CBK126424]	103	–
c1ccc(CCN2CCN(CCC(c3ccccc3)c3ccccc3)CC2)cc1 [CBK126432]	85.4	–
c1ccc(CC2CCN(CCOc3ccccc3)CC2)cc1 [CBK126433]	107	–
c1ccc(CCN2CCC(Cc3ccccc3)CC2)cc1 [CBK126434]	96.3	–
COc1cccc(CN2CCC(Cc3ccccc3)CC2)c1 [CBK126436]	103	–
COc1cc2c(cc1OC)CN(CCN1CCCCC1)CC2 [CBK126439]	101	–
COc1cccc(CN2CCc3cc(OC)c(OC)cc3C2)c1 [CBK126441]	102	–
CN(C)C(=O)CN1CCN(CCc2ccccc2)CC1 [CBK126455]	98.8	–

Structure (SMILES)	viability at 28.5 h, 10 µM [%]	viability at 28.5 h, 10 µM (bulk resorufin, single well) [%]
CCOC(=O)CN(Cc1ccccc1)Cc1ccc(OC)cc1 [CBK126460]	103	–
COc1cc(Nc2cncc(-c3ccc(O)cc3)n2)c(Cl)cc1C(=O)NCC1CCCO1 (stereo not drawn) [CBK126468]	100	–
COc1cc(Nc2cncc(-c3ccc(O)cc3)n2)c(Cl)cc1C(=O)NCC(F)(F)F [CBK126470]	82.9	–
COCCCn1c(N)c(C(=O)NCC(C)C)c2nc3ccccc3nc21 [CBK126495]	84.9	–
COc1cc(CNC(=O)c2cccc(-c3ccc(OC4CCNCC4)cc3)n2)cc(OC)c1OC [CBK126550T]	87.1	–
CCN(CC)c1ccc(NC(=O)c2cc(-c3cccnc3)cnc2NCCN2CCOCC2)cc1 [CBK126566]	105	–
c1ccc2c(-c3ccc(OC4CCNCC4)cc3)cncc2c1 [CBK126578]	112	–
CS(=O)(=O)N1CC2(CCN(Cc3ccc(OC(F)(F)F)cc3)CC2)c2ccccc21 [CBK126668]	99.4	–
CS(=O)(=O)N1CC2(CCN(Cc3cccc(C(F)(F)F)c3)CC2)c2ccccc21 [CBK126670]	96.8	–
CS(=O)(=O)N1CC2(CCN(Cc3nc4ccccc4[nH]3)CC2)c2ccccc21 [CBK126672]	89.2	–
CS(=O)(=O)N1CC2(CCN(CCO)CC2)c2ccccc21 [CBK126677]	94.5	–
CS(=O)(=O)N1CC2(CCN(CC(N)=O)CC2)c2ccccc21 [CBK126678]	81.5	–
CS(=O)(=O)N1CC2(CCN(Cc3ncc[nH]3)CC2)c2ccccc21 [CBK126680]	98.8	–
CCNC(=O)N1CC2(CCN(Cc3nc4ccccc4[nH]3)CC2)c2ccccc21 [CBK126693]	98	–
CCNC(=O)N1CC2(CCN(CCS(=O)(=O)c3ccccc3)CC2)c2ccccc21 [CBK126698]	90.9	–
CC(C)C(=O)N1CC2(CCN(Cc3cccc(C(F)(F)F)c3)CC2)c2ccccc21 [CBK126716]	102	–
CC(C)C(=O)N1CC2(CCN(CCc3c[nH]c4ccccc34)CC2)c2ccccc21 [CBK126725]	95.6	–
CC(C)C(=O)N1CC2(CCN(CCS(=O)(=O)c3ccccc3)CC2)c2ccccc21 [CBK126726]	95.4	–
Cc1cc(C(=O)N2CCN(C)CC2)ccc1-c1cnc(N)c(-c2ccc(O)cc2)n1 [CBK126749]	94.8	–
O=S(=O)(CCN1CCC2(CC1)CN(CCO)c1ccccc12)c1ccccc1 [CBK126758]	102	–
OCCN1CCC2(CC1)CN(CCO)c1ccccc12 [CBK126759]	87.4	–
